{"source": "patent US20150038694A1", "about": "“GLUCOSE D[…] TO ARSENIC FOR USE IN THE TREATMENT OF TUMOUR” (XENUS SRL, priority 2012, published 2015)", "key": {"[1]": {"test_system": "cellular line of human neuroblastoma (SK-N-BE)", "assay": "MTT test (reduction of tetrazolium salts) on human neuroblastoma cells", "format": "cell-based", "settings": "for reduction of the cell survival (formazan absorbance data): final concentrations 10-30-50-100 and 200 μM, forty-eight, seventy-two and ninety-six hours, absorbance at 570 nm; for morphologic changes visible with an optical microscope (loss of adherence to the plate, roundish shape with irregular outlines): treated cells", "from_the_text": "(§1) The compound GD152.186 (PM 449,4) produced by means of above mentioned synthesis process, has been tested in a series of preclinical testing on cellular lines of human tumors, and in particular on a cellular line of human neuroblastoma (SK-N-BE) and on a cellular line of human promyelokytic leukemia (HL60).\nThe culture medium used for growing the SK-N-BE cells is DMEM High Glucose (Dulbecco's Modified Eagle Medium) with 10% FBS (fetal bovine serum), 1% L-Glutamine and 1% Penicillin/Streptomycin antibiotics.\n(§2) As a positive control, arsenic trioxide (As2O3, Sigma-Aldrich) has been used, as its activity has already been tested on cellular lines of human neuroblastoma and human promyelokytic leukemia.\n(§3) The compound GD152.186 has been dissolved in sterile water so as to reach the final concentrations of 100-300-500-1000-2000 μM.\n(§4) The test used for evaluating the persistence of tumor cells after the contact with said compound GD152.186 is the MTT test (reduction of tetrazolium salts).\n(§5) Said test is based on the ability of the mitochondrial respiratory enzyme of the cells, usually called succinate tetrazolium reductase, of reducing a tetrazolium salt (3-[4,5-dimethylthiazol-2-yl]-2,5-diphenyltetrazolium bromide (MTT, Sigma Aldrich)) into an insoluble compound of blue colour, usually called formazan.\nSaid reduction process occurs only in living cells and not in dead or damaged ones, consequently, the amount of formazan produced is directly proportional to the number of cells metabolically active in the tested sample.\n96-well plates have been used for performing the tests, wherein in each well 5.000 (SK-N-BE) cells or 50.000 (HL60) cells have been sown, suspended in 180 μL of medium and then incubated at 37° C. and 5% CO2.\nForty-eight hours later, the cells have been treated with 20 μL of growing concentrations (in six replicates) of arsenic trioxide (100-300-500-1000 μM) and of GD152.186 compound (100-300-500-1000-2000 μM), so as to obtain inside each single well the final concentrations of 10-30-50-100 and 200 μM.\nTo one six-well column no compound is added but only 20 μL of sterile water, for following the natural growth of the cells.\nThe plates are incubated again for forty-eight, seventy-two and ninety-six hours, at the end thereof the test is performed.\nTo each single well 20 μL of MTT solution (5 mg·m-1 in sterile […]) have been added, giving an incubation time of three hours, functional to the formation of formazan.\nThen, the supernatant is removed from each well and 200 μL of DMSO are added.\nAfter about ten minutes the concentration level of formazan has been taken by means of a spectrophotometer set at a wave length of 570 nm."}, "[2]": {"test_system": "cellular line of human promyelokytic leukemia (HL60)", "assay": "MTT test (reduction of tetrazolium salts) on human promyelokytic leukemia cells", "format": "cell-based", "settings": "increasing concentrations", "procedure": "as §1\nInstead, the HL60 cells grow in suspension at a temperature of 37° C. and in 5% CO2, and the culture medium used is RPMI 1640 with 10% FBS (fetal bovine serum), 1% L-Glutamine and 1% Penicillin/Streptomycin antibiotics.\nas §2, §3, §4\nas §5, with “formazan. […]” for “formazan.”"}}, "note": "“Also recorded” adds a separate entry of the source.", "data": [{"compound": "OC[C@H]1O[C@H](CCNc2ccc([As]3SCCS3)cc2)[C@H](O)[C@@H](O)[C@@H]1O", "note": "[GD152.186]", "values": [{"measurement": "reduction of the cell survival (formazan absorbance data)", "setting": "[1]", "result": "reduction of the cell survival is directly depending on the dosage of the GD152.186 compound and on the time of exposure; also recorded: most visible when the cells have come into contact with high concentrations (100-200 μM)"}, {"measurement": "morphologic changes visible with an optical microscope (loss of adherence to the plate, roundish shape with irregular outlines)", "setting": "[1]", "result": "morphologic changes have been surprisingly detected"}, {"measurement": "reduction of the cell survival (formazan absorbance data), HL60 cells", "setting": "[2]", "result": "reduction of the cell survival"}]}, {"compound": "arsenic trioxide [reference compound]", "values": [{"measurement": "reduction of the cell survival (formazan absorbance data)", "setting": "[1]", "result": "reduction of the cell survival is strictly dependent on the arsenic trioxide dosage and on the time of exposure"}, {"measurement": "morphologic changes visible with an optical microscope (loss of adherence to the plate, roundish shape with irregular outlines)", "setting": "[1]", "result": "morphologic changes have been found"}, {"measurement": "reduction of the cell survival (formazan absorbance data), HL60 cells", "setting": "[2]", "result": "reduction of the cell survival"}]}]}
